Test results from patent US7064124B2, “NF-κB inhibitor containing substituted benzoic acid derivative as active ingredient” (Daiichi Suntory Pharma Co., Ltd., priority 2001, dated 2006).
In brackets after ≈: the same amount, converted by molar mass.

Key:
NF-κB = NF-κB luciferase reporter assay in A549/NF-κBLuc cells stimulated with IL-1β; assay type: cell-based, human; conditions: Homo sapiens, A549, A549/NF-κBLuc cells; compound added 1 hour before IL-1β, then 3 hours incubation; luciferase activity; read-out: NF-κB Inhibitory Activity (IC50)
Outline: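 A549 cells stably carrying an NF-κB-driven luciferase reporter (pNFκB-Luc, G418-selected) pre-treated with compound for 1 h, then stimulated with IL-1β and incubated a further 3 h. Luciferase signal used to derive IC50 for NF-κB inhibition.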

| SMILES | IC50 (NF-κB) [µg/mL] | melting point [°C] |
| --- | --- | --- |
| COC1=C(OC)C(=O)C(Cc2ccc(O)c(C(=O)Nc3ccnc(Cl)c3)c2)=C(C)C1=O [Example 227, N-(2-Chloropyridin-4-yl)-5-(5,6-dimethoxy-3-methyl-1,4-benzoquinon-2-yl)methyl-2-hydroxybenzamide] | 20 (≈ 45.2 µM) | 142 to 144 |
| COC1=C(OC)C(=O)C(Cc2ccc(O)c(C(=O)Nc3ccccc3C(F)(F)F)c2)=C(C)C1=O [Example 146, N-[5-(5,6-Dimethoxy-3-methyl-1,4-benzoquinon-2-yl)methyl-2-hydroxybenzoyl]-2-trifluoromethylaniline] | 11 (≈ 23.1 µM) | 111 to 114 |
| COC1=C(OC)C(=O)C(Cc2ccc(O)c(C(=O)Nc3ccc(S(=O)(=O)C(F)(F)F)cc3)c2)=C(C)C1=O [Example 174, N-[5-(5,6-Dimethoxy-3-methyl-1,4-benzoquinon-2-yl)methyl-2-hydroxybenzoyl]-4-(trifluoromethylsulfonyl)aniline] | 6 (≈ 11.1 µM) | 223 to 225.5 |
| COC1=C(OC)C(=O)C(Cc2ccc(OC(C)=O)c(C(=O)Nc3ccc(CC#N)cc3)c2)=C(C)C1=O [Example 149, N-[5-(5,6-Dimethoxy-3-methyl-1,4-benzoquinon-2-yl)methyl-2-acetoxybenzoyl]-4-cyanomethylaniline] | 25 (≈ 51.2 µM) | 125 to 128 |
| COC1=C(OC)C(=O)C(Cc2ccc(O)c(C(=O)Nc3ccc(C(=O)OC(C)(C)C)cc3)c2)=C(C)C1=O [Example 214, tert-Butyl N-[5-(5,6-dimethoxy-3-methyl-1,4-benzoquinon-2-yl)methyl-2-hydroxybenzoyl]-4-aminobenzoate] | 10 (≈ 19.7 µM) | 200.5 to 202 |
| COC1=C(OC)C(=O)C(Cc2ccc(O)c(C(=O)Nc3ccc(CC#N)cc3)c2)=C(C)C1=O [Example 150, N-[5-(5,6-Dimethoxy-3-methyl-1,4-benzoquinon-2-yl)methyl-2-hydroxybenzoyl]-4-cyanomethylaniline] | 4 (≈ 8.96 µM) | 164.5 to 166 |
| COC1=C(OC)C(=O)C(Cc2ccc(OC(C)=O)c(C(=O)Nc3ccc(NC(=O)OC(C)(C)C)cc3)c2)=C(C)C1=O [Example 199, N-[5-(5,6-Dimethoxy-3-methyl-1,4-benzoquinon-2-yl)methyl-2-acetoxybenzoyl]-4-(tert-butoxycarbonyl)aminoaniline] | 16 (≈ 28.3 µM) | 188.5 to 191 |
| COC1=C(OC)C(=O)C(Cc2ccc(O)c(C(=O)Nc3ccc(Cl)nc3)c2)=C(C)C1=O [Example 185, N-(6-Chloropyridin-3-yl)-5-(5,6-dimethoxy-3-methyl-1,4-benzoquinon-2-yl)methyl-2-hydroxybenzamide] | 11 (≈ 24.8 µM) | 166 to 169 |
| COC1=C(OC)C(=O)C(Cc2ccc(OC(C)=O)c(C(=O)Nc3cc(OC)ncn3)c2)=C(C)C1=O [Example 228, N-(6-Methoxypyrimidin-4-yl)-5-(5,6-dimethoxy-3-methyl-1,4-benzoquinon-2-yl)methyl-2-acetoxybenzamide] | 64 (≈ 133 µM) | 138.5 to 141 |
| COC1=C(OC)C(=O)C(Cc2ccc(O)c(C(=O)Nc3cc(OC)ccc3OC)c2)=C(C)C1=O [Example 220, N-[5-(5,6-Dimethoxy-3-methyl-1,4-benzoquinon-2-yl)methyl-2-hydroxybenzoyl]-2,5-dimethoxyaniline] | 66 (≈ 141 µM) | 130 to 132 |
| COC1=C(OC)C(=O)C(Cc2ccc(O)c(C(=O)Nc3ccc(NC(=O)OC(C)(C)C)cc3)c2)=C(C)C1=O [Example 200, N-[5-(5,6-Dimethoxy-3-methyl-1,4-benzoquinon-2-yl)methyl-2-hydroxybenzoyl]-4-(tert-butoxycarbonyl)aminoaniline] | 17 (≈ 32.5 µM) | 127 to 129 |
| COC1=C(OC)C(=O)C(Cc2ccc(OC(C)=O)c(C(=O)Nc3ccc(S(=O)(=O)C(F)(F)F)cc3)c2)=C(C)C1=O [Example 173, N-[5-(5,6-Dimethoxy-3-methyl-1,4-benzoquinon-2-yl)methyl-2-acetoxybenzoyl]-4-(trifluoromethylsulfonyl)aniline] | 9 (≈ 15.5 µM) | 84.5 to 87 |
| COC1=C(OC)C(=O)C(Cc2ccc(OC(C)=O)c(C(=O)Nc3cccnc3Cl)c2)=C(C)C1=O [Example 186, N-(2-Chloropyridin-3-yl)-5-(5,6-dimethoxy-3-methyl-1,4-benzoquinon-2-yl)methyl-2-acetoxybenzamide] | 2 (≈ 4.12 µM) | 128.5 to 130 |
| COC1=C(OC)C(=O)C(Cc2ccc(O)c(C(=O)Nc3ccncc3)c2)=C(C)C1=O.CS(=O)(=O)O [Example 203, N-(Pyridin-4-yl)-5-(5,6-dimethoxy-3-methyl-1,4-benzoquinon-2-yl)methyl-2-hydroxybenzamide (methanesulfonate)] | 30 | 199.5 to 201.5 |
| COC1=C(OC)C(=O)C(Cc2ccc(OC(C)=O)c(C(=O)Nc3ccc(-n4ccnc4)cc3)c2)=C(C)C1=O [Example 208, N-[5-(5,6-Dimethoxy-3-methyl-1,4-benzoquinon-2-yl)methyl-2-acetoxybenzoyl]-4-(imidazol-1-yl)aniline] | 19 (≈ 36.9 µM) | 116.5 to 118.5 |
| COC1=C(OC)C(=O)C(Cc2ccc(O)c(C(=O)Nc3ccc([N+](=O)[O-])cc3)c2)=C(C)C1=O [Example 191, N-[5-(5,6-Dimethoxy-3-methyl-1,4-benzoquinon-2-yl)methyl-2-hydroxybenzoyl]-4-nitroaniline] | 4 (≈ 8.84 µM) | 213.5 to 215.5 |

| SMILES | IC50 (NF-κB) [µg/mL] | melting point [°C] |
| --- | --- | --- |
| CC1=C(C)C(=O)C(Cc2ccc(O)c(C(=O)Nc3cccnc3Cl)c2)=C(C)C1=O [Example 237] | 5 (≈ 12.2 µM) | 199 to 201 |
| COC1=C(OC)C(=O)C(Cc2ccc(O)c(C(=O)Nc3cccnc3N3CCOCC3)c2)=C(C)C1=O [Example 223, N-(2-Morpholinopyridin-3-yl)-5-(5,6-dimethoxy-3-methyl-1,4-benzoquinon-2-yl)methyl-2-hydroxybenzamide] | 81 (≈ 164 µM) | 210 to 212.5 |
| COC1=C(OC)C(=O)C(Cc2ccc(O)c(C(=O)Nc3ccc(N4CCOCC4)nc3)c2)=C(C)C1=O [Example 225, N-(6-Morpholinopyridin-3-yl)-5-(5,6-dimethoxy-3-methyl-1,4-benzoquinon-2-yl)methyl-2-hydroxybenzamide] | 24 (≈ 48.6 µM) | 102.5 to 105 |
| CCOC(=O)c1ccc(NC(=O)c2cc(CC3=C(C)C(=O)C(OC)=C(OC)C3=O)ccc2O)cc1 [Example 148] | 3 (≈ 6.26 µM) | 176 to 179 |
| COC1=C(OC)C(=O)C(Cc2ccc(O)c(C(=O)Nc3ccc(F)cc3)c2)=C(C)C1=O [Example 142, N-[5-(5,6-Dimethoxy-3-methyl-1,4-benzoquinon-2-yl)methyl-2-hydroxybenzoyl]-4-fluoroaniline] | 9 (≈ 21.2 µM) | 125 to 127 |
| COC1=C(OC)C(=O)C(Cc2ccc(O)c(C(=O)Nc3cc(OC)ncn3)c2)=C(C)C1=O [Example 229, N-(6-Methoxypyrimidin-4-yl)-5-(5,6-dimethoxy-3-methyl-1,4-benzoquinon-2-yl)methyl-2-hydroxybenzamide] | 59 (≈ 134 µM) | 209.5 to 211.5 |
| COC1=C(OC)C(=O)C(Cc2ccc(OCc3cccnc3)c(C(=O)NC3CCCCC3)c2)=C(C)C1=O [Example 171, N-Cyclohexyl-5-(5,6-dimethoxy-3-methyl-1,4-benzoquinon-2-yl)methyl-2-(3-pyridylmethyloxy)benzamide] | 26 (≈ 51.5 µM) | 115 to 118 |
| COC1=C(OC)C(=O)C(Cc2ccc(O)c(C(=O)Nc3cccnc3)c2)=C(C)C1=O [Example 158, N-(Pyridin-3-yl)-5-(5,6-dimethoxy-3-methyl-1,4-benzoquinon-2-yl)methyl-2-hydroxybenzamide] | 7 (≈ 17.1 µM) | 119 to 122.5 |
| COC1=C(OC)C(=O)C(Cc2ccc(O)c(C(=O)Nc3cccnc3OC)c2)=C(C)C1=O [Example 216, N-(2-Methoxypyridin-3-yl)-5-(5,6-dimethoxy-3-methyl-1,4-benzoquinon-2-yl)methyl-2-hydroxybenzamide] | 10 (≈ 22.8 µM) | 112 to 114 |
| COC1=C(OC)C(=O)C(Cc2ccc(OC)c(C(=O)Nc3cccnc3Cl)c2)=C(C)C1=O [Example 221, N-(2-Chloropyridin-3-yl)-5-(5,6-dimethoxy-3-methyl-1,4-benzoquinon-2-yl)methyl-2-methoxybenzamide] | 46 (≈ 101 µM) | 178 to 180 |
| COC1=C(OC)C(=O)C(Cc2ccc(OC(C)=O)c(C(=O)Nc3ccc(C(=O)OC(C)(C)C)cc3)c2)=C(C)C1=O [Example 188, tert-Butyl N-[5-(5,6-dimethoxy-3-methyl-1,4-benzoquinon-2-yl)methyl-2-acetoxybenzoyl]-4-aminobenzoate] | 9 (≈ 16.4 µM) | 78.5 to 81 |
| COC1=C(OC)C(=O)C(Cc2ccc(O)c(C(=O)Nc3ccc(N)cc3)c2)=C(C)C1=O.Cl [Example 205, N-[5-(5,6-Dimethoxy-3-methyl-1,4-benzoquinon-2-yl)methyl-2-hydroxybenzoyl]-p-phenylenediamine (hydrochloride)] | 50 | 162 to 164 |
| CCOC(=O)c1ccc(NC(=O)c2cc(CC3=C(C)C(=O)C(OC)=C(OC)C3=O)ccc2OC(C)=O)cc1 [Example 147, Ethyl N-[5-(5,6-dimethoxy-3-methyl-1,4-benzoquinon-2-yl)methyl-2-acetoxybenzoyl]-4-aminobenzoate] | 19 (≈ 36.4 µM) | 154 to 156.5 |
| CC1=C(C)C(=O)C(Cc2ccc(O)c(C(=O)Nc3ccc(C(F)(F)F)cc3)c2)=C(C)C1=O [Example 235, N-[5-(3,5,6-Trimethyl-1,4-benzoquinon-2-yl)methyl-2-hydroxybenzoyl]-4-trifluoromethylaniline] | 5 (≈ 11.3 µM) | 233 to 235 |
| COC1=C(OC)C(=O)C(Cc2ccc(OC(C)=O)c(C(=O)Nc3ccc(OC)nc3)c2)=C(C)C1=O [Example 180] | 23 (≈ 47.9 µM) | 104.5 to 107.5 |
